Experiments:
[1] = Metabolic stability in liver S9 fractions; assay type: in vitro ADME; conditions: pooled mouse liver S9 fraction; 1 μM compound, 1 mg/mL pooled mouse liver S9, 37 °C; read-out: t1/2 Mouse Liver S9
Method: To evaluate phase I and phase II metabolic stability, the compound (1 μM) was incubated at 37 °C for 240 min with 1 mg/mL pooled mouse liver S9 fraction (Xenotech, Kansas City, USA), 2 mM NADPH, 1 mM UDPGA, 10 mM MgCl2, 5 mM GSH and 0.1 mM PAPS. Metabolic stability of reference compounds: testosterone, verapamil and ketoconazole was determined in parallel to confirm the enzymatic activity of mouse S9 fractions. At defined time points, the incubation was stopped by precipitation of aliquots of S9 enzymes with 2 volumes of cold acetonitrile containing internal standard (150 nM diphenhydramine or 15 nM for Altis Plus measurements). Samples were kept on ice until the end of the incubation, after which precipitated protein was removed by centrifugation (15 min, 4 °C, 4,000 g).

[2] = test system: FACT complex subunit (W7KAC4); experiment: iSPP profiling, P. falciparum lysate; assay type: binding, Plasmodium falciparum
Method: (§1) P. falciparum NF54 lysates were extracted as described in ^[26^] . The parasite asynchronous culture was extracted once 3-5% parasitemia was reached. Saponin lysis was done as described in 2.2.10. Once the parasite pellet was obtained, 2.5 volumes of ice-cold lysis buffer (50 mM Tris/HCl pH 7.5 (Avantor), 5% glycerol (Sigma-Aldrich), 150 mM NaCl (Carl Roth), 1.5 mM MgCl2 (Sigma-Aldrich), 1 mM DTT (Carl Roth), 0.8% IGEPAL CA-630 (Sigma-Aldrich), 1X Halt Protease and Phosphatase Inhibitor-Cocktails EDTA-free (Thermo Fisher Scientific)) was added to the parasite pellet. The lysate solution was subjected to three cycles of flash freeze-thaw with liquid nitrogen and ddH2O at RT. The lysates were centrifuged at 20,000 g for 20 minutes at 4 °C. The soluble protein fraction (supernatant) was collected and the protein content was quantified using the BCA assay (Pierce™ BCA Protein Assay Kit, Thermo Fisher Scientific). The lysate was stored at -80 °C until further use.
(§2) The P. falciparum lysate was thawed on ice and diluted to 0.8 mg/mL. […] Subsequently, the samples were incubated at room temperature for 30 minutes using a rotating mixer. After distribution into a 96-well plate, the samples were treated with increasing concentrations of A.E.A. (v/v) ranging from 14% to 28% (14, 16, 18, 20, 22, 24, 26, and 28%). Following a 20-minute incubation at 37°C with shaking at 750 rpm, the samples were centrifuged at 4400 g for 35 minutes to remove precipitated proteins. The soluble fractions were then pooled in equal volumes into a single sample using the Bravo Automated Liquid Handling Platform. The pooled samples were subsequently prepared for LC-MS/MS analysis.
(§3) The raw LFQ-DIA intensity values of biological replicates across all conditions were normalized to the median abundance using Excel. The normalized values were then log2 transformed in Perseus (v2.0.10.0).^[58^] Missing values were imputed from a normal distribution (width 0.3, down shift 1.5), and p-values were obtained using a two-sample t-test over replicates with a permutation-based false discovery rate correction (FDR 0.05). Volcano plots were generated in RStudio using the EnhancedVolcano package (v. 1.20.0), ^[59^] plotting proteins by statistical significance (y-axis: –Log10 p-value) versus the magnitude of change (x-axis: log2 fold change of protein intensities for each compound condition relative to the vehicle control). The heatmap was generated in Perseus (v2.0.10.0). Dose-dependent curves were generated using normalized protein intensity values, expressed as a ratio to the vehicle control. Plots were created in GraphPad Prism (v8.3.0) using a nonlinear regression model.

[3] = test system: DNA primase large subunit (W7KFW7); experiment: iSPP profiling, P. falciparum lysate; assay type: binding, Plasmodium falciparum
Method: as §1, §2, §3

[4] = test system: PI3K/PI4K catalytic domain-containing protein (W7K7J6); experiment: iSPP profiling, P. falciparum lysate; assay type: binding, Plasmodium falciparum
Method: as §1, §2, §3

Dd2b2^pfmdr1 G182S = assay type: cell-based, Plasmodium falciparum; conditions: Dd2b2^pfmdr1 G182S vs Dd2b2^WT
Method: ^[a] 72-h [^3H] hypoxanthhine incorporation assay; Data is expressed as mean±s.d. The assay was performed in three independent biological experiments, each in biological duplicates
P. falciparum asexual blood stage parasites were cultured in human red blood cells (RBC, Blutspende SRK, Zurich) at a hematocrit of 5% in RPMI 1640 medium. The RPMI 1640 medium (ThermoFisher Scientific #51800−043) was supplemented with the following: 24 mM NaHCO3 (pH 7.3, Sigma-Aldrich #31437−500G-R), 25 mM Hepes (Sigma-Aldrich #H4034−500G), 0.36 mM hypoxanthine (Sigma-Aldrich # H9377−25G), 100 µg mL^-1 neomycin (Sigma-Aldrich #N6386−100G) and 0.5% Albumax II (Thermo Fisher #11021−045). Additionally, 2 mM choline chloride (279 mg/L, Sigma-Aldrich #C7527−100G) was added to the culture to block the induction of sexual commitment as described. ^[31^] The RPMI 1640 medium and components were dissolved in water (Milli-Q purified), stirred for at least 3 h, and then sterile filtered (0.22 μm pore size) with a bottle top filter (Corning # 431118). Parasite cultures were maintained in an atmosphere of 3% O2, 4% CO2, and 93% N2 in air-tight chambers at 37 °C. The [^3H]-hypoxanthine incorporation assay was used to test compound activity in the specific parasite lines as described.^[32^] Briefly, compounds were dissolved in DMSO (10 mM) and diluted in a hypoxanthine-free culture medium. A limiting dilution was performed over a 64-fold range (6-step twofold dilution) in a 96-well plate in duplicates. For every starting concentration, a limiting dilution was performed over a 64-fold range (6-step twofold dilution) in a 96-well plate in two biological duplicates. Parasites were added at 100 µL to each well containing the compound to obtain a final parasitemia of 0.3% and haematocrit of 1.25%. The plates were incubated for 48 h before 0.25 µCi of [^3H]-hypoxanthine was added per well for an additional 24 h. Parasites were harvested on a glass-fiber filter with a Microbeta FilterMate cell harvester (Perkin Elmer, Waltham, USA) and radioactivity was counted using a MicroBeta2 liquid scintillation counter (Perkin Elmer, Waltham, US). […] The fifty percent inhibitory concentration (IC50) was calculated by using nonlinear, four parameter (variable slope) curve fitting as described ^[33^] after importing into GraphPad Prism (version 8.3.0).

Q: What does the source list for CN1CCN(Cc2ccc(O)c(NC(=O)c3cccc(Oc4cc(C(F)(F)F)ccn4)c3)c2)CC1 [Compound 31, N-(2-hydroxy-5-((4-methylpiperazin-1-yl)methyl)phenyl)-3-((4-(trifluoromethyl)pyridin-2-yl)oxy)benzamide]?
A: half-life at 1 µM [1]: 42.7 ± 3.7 min; log2FC ([2]; 10 µM): 0.30; log2FC ([2]; 50 µM): 0.55; log2FC ([2]; 100 µM): 0.41; log2FC ([2]; 10^-2 µM): 0.48; log2FC ([2]; 10^-3 µM): 0.30; log2FC ([3]; 10 µM): 0.33; log2FC ([3]; 50 µM): 0.51; log2FC ([3]; 100 µM): 0.41; log2FC ([3]; 10^-2 µM): 0.50; log2FC ([3]; 10^-3 µM): 0.39; log2FC ([4]; 10 µM): 0.30; log2FC ([4]; 50 µM): 0.44; log2FC ([4]; 100 µM): 0.41; log2FC ([4]; 10^-2 µM): 0.42; log2FC ([4]; 10^-3 µM): 0.17; IC50 fold shift relative to parental clone (Dd2b2^pfmdr1 G182S): 35.7

— PMC12668308, “A Novel Antimalarial Agent that Inhibits Protein Synthesis in Plasmodium falciparum” (Angewandte Chemie (International Ed. in English), 2025)
